Results reported in patent US12559506B2, “Indazole based compounds and associated methods of use” (Arvinas Operations, Inc., priority 2021, dated 2026).

How the values were obtained:
G2019S LRRK2 = target: T1, G2019S LRRK2 (Homo sapiens, UniProt Q5S007, G2019S); experiment: LRRK2 degradation assay, HiBit-tagged G2019S LRRK2 expressed from plasmid in HEK293 cells (Nano-Glo Dual-Luciferase); assay type: cell-based; conditions: HiBit-tagged G2019S LRRK2 in HEK293 cells, 24 hours
T1 construct: expressed in transfected cells; host or cells: HEK293 (ATCC CRL-1573), transient transfection, mammalian expression vector with ubiquitin promoter
T1 sequence (Q5S007 whole entry G2019S): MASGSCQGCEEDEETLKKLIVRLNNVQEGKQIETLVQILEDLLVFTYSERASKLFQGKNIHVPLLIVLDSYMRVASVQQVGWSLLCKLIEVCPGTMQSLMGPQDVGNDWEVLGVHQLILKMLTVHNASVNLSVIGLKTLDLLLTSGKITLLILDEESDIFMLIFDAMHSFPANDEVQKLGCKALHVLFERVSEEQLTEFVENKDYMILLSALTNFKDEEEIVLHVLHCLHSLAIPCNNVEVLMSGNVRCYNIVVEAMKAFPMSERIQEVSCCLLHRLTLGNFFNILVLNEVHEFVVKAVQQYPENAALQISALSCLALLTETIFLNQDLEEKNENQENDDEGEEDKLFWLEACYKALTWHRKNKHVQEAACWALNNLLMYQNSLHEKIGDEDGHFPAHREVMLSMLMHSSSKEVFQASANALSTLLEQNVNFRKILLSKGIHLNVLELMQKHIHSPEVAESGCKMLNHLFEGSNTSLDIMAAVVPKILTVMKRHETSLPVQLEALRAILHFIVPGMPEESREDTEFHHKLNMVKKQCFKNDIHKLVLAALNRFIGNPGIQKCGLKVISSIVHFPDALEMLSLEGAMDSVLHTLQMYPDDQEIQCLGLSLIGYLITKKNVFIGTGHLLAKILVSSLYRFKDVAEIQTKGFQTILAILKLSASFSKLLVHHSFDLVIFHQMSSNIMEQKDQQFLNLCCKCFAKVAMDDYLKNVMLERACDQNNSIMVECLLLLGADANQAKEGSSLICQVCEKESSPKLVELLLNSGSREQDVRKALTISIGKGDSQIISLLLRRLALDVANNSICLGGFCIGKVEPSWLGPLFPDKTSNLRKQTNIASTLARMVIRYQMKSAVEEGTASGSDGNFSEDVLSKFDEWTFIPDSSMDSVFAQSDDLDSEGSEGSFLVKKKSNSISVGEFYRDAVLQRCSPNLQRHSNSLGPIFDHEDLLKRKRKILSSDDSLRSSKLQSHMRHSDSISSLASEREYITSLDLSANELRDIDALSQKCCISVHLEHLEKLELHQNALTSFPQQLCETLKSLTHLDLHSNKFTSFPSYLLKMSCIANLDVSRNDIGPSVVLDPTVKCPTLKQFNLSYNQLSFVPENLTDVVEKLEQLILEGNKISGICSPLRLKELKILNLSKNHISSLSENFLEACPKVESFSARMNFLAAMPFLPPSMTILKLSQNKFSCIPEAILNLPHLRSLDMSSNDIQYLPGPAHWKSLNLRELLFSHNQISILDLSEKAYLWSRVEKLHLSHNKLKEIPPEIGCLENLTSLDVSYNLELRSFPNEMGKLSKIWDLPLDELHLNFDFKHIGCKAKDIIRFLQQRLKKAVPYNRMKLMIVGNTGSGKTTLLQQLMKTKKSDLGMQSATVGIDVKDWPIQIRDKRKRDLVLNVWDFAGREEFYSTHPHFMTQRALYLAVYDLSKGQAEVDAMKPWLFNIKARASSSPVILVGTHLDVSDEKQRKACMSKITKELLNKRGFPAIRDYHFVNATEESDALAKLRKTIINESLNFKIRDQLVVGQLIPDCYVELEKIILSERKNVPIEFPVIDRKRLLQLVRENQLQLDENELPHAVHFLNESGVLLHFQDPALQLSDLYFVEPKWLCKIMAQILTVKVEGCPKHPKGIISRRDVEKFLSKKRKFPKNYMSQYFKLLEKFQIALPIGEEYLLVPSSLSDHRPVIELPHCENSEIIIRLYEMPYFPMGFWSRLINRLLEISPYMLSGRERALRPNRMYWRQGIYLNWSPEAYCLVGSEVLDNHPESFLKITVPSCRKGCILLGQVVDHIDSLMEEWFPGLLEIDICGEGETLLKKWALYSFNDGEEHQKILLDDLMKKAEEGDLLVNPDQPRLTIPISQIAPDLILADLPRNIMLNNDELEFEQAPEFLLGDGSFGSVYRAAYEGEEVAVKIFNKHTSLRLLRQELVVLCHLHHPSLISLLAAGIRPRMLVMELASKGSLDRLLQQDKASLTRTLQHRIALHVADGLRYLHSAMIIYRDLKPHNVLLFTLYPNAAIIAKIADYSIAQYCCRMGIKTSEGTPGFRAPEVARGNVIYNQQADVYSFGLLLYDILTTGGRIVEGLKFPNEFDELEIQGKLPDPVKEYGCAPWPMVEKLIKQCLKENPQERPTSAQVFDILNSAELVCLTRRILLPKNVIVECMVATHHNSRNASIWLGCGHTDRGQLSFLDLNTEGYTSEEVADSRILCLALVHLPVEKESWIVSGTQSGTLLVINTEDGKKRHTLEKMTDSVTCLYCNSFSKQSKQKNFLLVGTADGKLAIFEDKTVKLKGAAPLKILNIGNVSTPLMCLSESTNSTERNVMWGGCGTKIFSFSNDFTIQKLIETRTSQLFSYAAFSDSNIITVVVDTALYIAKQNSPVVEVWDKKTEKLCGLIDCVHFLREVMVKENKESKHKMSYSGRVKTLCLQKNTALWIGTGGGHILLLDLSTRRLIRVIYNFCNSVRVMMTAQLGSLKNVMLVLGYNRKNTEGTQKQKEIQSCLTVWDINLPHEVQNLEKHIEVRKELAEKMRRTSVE
Outline: (§1)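 Degradation read as Nano-Glo HiBiT signal over firefly luciferase (cell number/viability) after 24 h compound exposure of transiently transfected HEK293 expressing C-terminally HiBiT-tagged wildtype or G2019S LRRK2. Data as % DMSO; DC50/Dmax fitted per plate, triplicate plates repeated twice.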

wildtype LRRK2 = target: T2, wildtype LRRK2 (Homo sapiens, UniProt Q5S007); experiment: LRRK2 degradation assay, HiBit-tagged wildtype LRRK2 expressed from plasmid in HEK293 cells (Nano-Glo Dual-Luciferase); assay type: cell-based; conditions: HiBit-tagged wildtype LRRK2 in HEK293 cells, 24 hours; for Dmax: read-out: **WT Dmax (%); for DC50: read-out: *WT DC50
T2 construct: expressed in transfected cells; host or cells: HEK293 (ATCC CRL-1573), transient transfection, mammalian expression vector with ubiquitin promoter
T2 sequence (Q5S007 whole entry): as the sequence (Q5S007 whole entry G2019S) above, with S2019G counted along it
Outline: as §1

| SMILES | DC50 (G2019S LRRK2) [nM] | Dmax (G2019S LRRK2) [%] | Dmax (wildtype LRRK2) [%] | DC50 (wildtype LRRK2) [nM] |
| --- | --- | --- | --- | --- |
| CC1(Oc2ccc3[nH]nc(-c4cc(N5CCC(O[C@H]6C[C@H](OC7CCN(c8ccc9c(c8)C(=O)N(C8CCC(=O)NC8=O)C9=O)CC7)C6)CC5)ncn4)c3c2)CC1 (stereo partly shown) [Compound 126, 2-(2,6-dioxo-3-piperidyl)-5-[4-[3-[[1-[6-[5-(1-methylcyclopropoxy)-1H-indazol-3-yl]pyrimidin-4-yl]-4-piperidyl]oxy]cyclobutoxy]-1-piperidyl]isoindoline-1,3-dione] | 10 to 50 | < 50 | < 50 | 10 to 50 |
| CC1(Oc2ccc3[nH]nc(-c4ccnc(N5CCC(O[C@H]6C[C@H](OC7CCN(c8ccc9c(c8)C(=O)N(C8CCC(=O)NC8=O)C9=O)CC7)C6)CC5)c4)c3c2)CC1 (stereo partly shown) [Compound 127, 2-(2,6-dioxo-3-piperidyl)-5-[4-[3-[[1-[4-[5-(1-methylcyclopropoxy)-1H-indazol-3-yl]-2-pyridyl]-4-piperidyl]oxy]cyclobutoxy]-1-piperidyl]isoindoline-1,3-dione] | 10 to 50 | < 50 | < 50 | 10 to 50 |
| CC1(Oc2ccc3n[nH]c(-c4cc(N5CCC(CN6CCN(CC7(F)CN(c8ccc9c(c8)C(=O)N(C8CCC(=O)NC8=O)C9=O)C7)CC6)CC5)ncn4)c3c2)CC1 (stereo not shown) [Compound 134, 2-(2,6-dioxo-3-piperidyl)-5-[3-fluoro-3-[[4-[[1-[6-[5-(1-methylcyclopropoxy)-2H-indazol-3-yl]pyrimidin-4-yl]-4-piperidyl]methyl]piperazin-1-yl]methyl]azetidin-1-yl]isoindoline-1,3-dione] | < 10 | 50 to 70 | 50 to 70 | < 10 |

Results, then the compound that gave them:

| DC50 (G2019S LRRK2) [nM] | Dmax (G2019S LRRK2) [%] | Dmax (wildtype LRRK2) [%] | DC50 (wildtype LRRK2) [nM] | SMILES |
| --- | --- | --- | --- | --- |
| < 10 | 50 to 70 | 50 to 70 | < 10 | CC1(Oc2ccc3[nH]nc(-c4cc(N5CCC(CN6CC(CN7CCN(c8ccc9c(c8)C(=O)N(C8CCC(=O)NC8=O)C9=O)CC7)C6)CC5)ncn4)c3c2)CC1 (stereo not shown) [Compound 125, 2-(2,6-dioxo-3-piperidyl)-5-[4-[[11-[[1-[6-[5-(1-methylcyclopropoxy)-1H-indazol-3-yl]pyrimidin-4-yl]-4-piperidyl]methyl]azetidin-3-yl]methyl]piperazin-1-yl]isoindoline-1,3-dione] |
| < 10 | 50 to 70 | 50 to 70 | < 10 | CC1(Oc2ccc3[nH]nc(-c4ccnc(N5CC(CN6CCN(CC7CCN(c8ccc9c(c8)C(=O)N(C8CCC(=O)NC8=O)C9=O)CC7)CC6)C5)c4)c3c2)CC1 (stereo not shown) [Compound 128, 2-(2,6-dioxopiperidin-3-yl)-5-[4-({4-[(1-{4-[5-(1-methylcyclopropoxy)-1H-indazol-3-yl]pyridin-2-yl}azetidin-3-yl)methyl]piperazin-1-yl}methyl)piperidin-1-yl]-2,3-dihydro-1H-isoindole-1,3-dione] |
| < 10 | ≥ 70 | ≥ 70 | < 10 | CC1(Oc2ccc3[nH]nc(-c4cc(N5CC(CN6CCN(CC7CCN(c8ccc9c(c8)C(=O)N(C8CCC(=O)NC8=O)C9=O)CC7)CC6)C5)ncn4)c3c2)CC1 (stereo not shown) [Compound 129, 2-(2,6-dioxo-3-piperidyl)-5-[4-[[4-[[1-[6-[5-(1-methylcyclopropoxy)-1H-indazol-3-yl]pyrimidin-4-yl]azetidin-3-yl]methyl]piperazin-1-yl]methyl]-1-piperidyl]isoindoline-1,3-dione] |
| < 10 | 50 to 70 | 50 to 70 | < 10 | CC1(Oc2ccc3[nH]nc(-c4cc(N5CCC(CN6CCN(CC7CN(c8ccc9c(c8)C(=O)N(C8CCC(=O)NC8=O)C9=O)C7)CC6)CC5)ncn4)c3c2)CC1 (stereo not shown) [Compound 133, 2-(2,6-dioxo-3-piperidyl)-5-[3-[[4-[[1-[6-[5-(1-methylcyclopropoxy)-1H-indazol-3-yl]pyrimidin-4-yl]-4-piperidyl]methyl]piperazin-1-yl]methyl]azetidin-1-yl]isoindoline-1,3-dione] |
